Laboratory results from article PMC7901654, “Bioisosteric Discovery of NPA101.3, a Second-Generation RET/VEGFR2 Inhibitor Optimized for Single-Agent Polypharmacology” (Journal of Medicinal Chemistry, 2020).

Experiments:
Format in all cases: cell-based
human VEGFR2 = molecular target: T1, human VEGFR2 (Homo sapiens, UniProt P35968); assay: Ligand-induced VEGFR2 autophosphorylation in transfected HEK293 cells; conditions: 2 h, VEGFA 100 ng/mL
T1 construct: expressed in transfected cells; host or cells: HEK293, transient transfection
Procedure: Fibroblasts transfected with RET/C634R were treated with increasing doses of NPA101.3, ranging from 0.1 to 10.0 nM. RET autophosphorylation was assessed by Western blotting using two different antibodies that can recognize phosphorylated Y905, located in the RET kinase activation loop, or Y1062, a multidocking site involved in RET downstream signaling.[41]
Figure 4 NPA101.3-mediated inhibition of phosphorylation and signaling of oncogenic RET mutants and VEGFR2 in intact cells. Serum-starved RAT1 cells exogenously expressing the (A and B) indicated RET point mutants or (C) NIH3T3 cells exogenously expressing the indicated RET rearranged mutants were treated for 2 h with the indicated concentrations of the compound. Total cell lysates (50 μg) were subjected to immunoblotting with anti-phospho-Y1062 (αp1062) and anti-phospho-Y905 (αp905) RET antibodies. The blots were normalized using the anti-RET (αRET) antibody. (D) HEK293 cells were transiently transfected with human VEGFR2; 36 h after transfection, cells were serum starved for 12 h. The indicated doses of the compound or vehicle (NT) were added for 2 h, and then VEGFA (100 ng/mL) stimulation was applied for 15 min. […]
Protein lysates were prepared according to standard procedures. […] Immune complexes were detected with the enhanced chemiluminescence kit (Amersham Pharmacia Biotech, Little Chalfont, U.K.). […]

NIH3T3 HRAS/G12V cells = assay: Phosphorylation and signalling Western blot in NIH3T3 HRAS/G12V cells; conditions: up to a dose of 100.0 nM
Procedure: Protein lysates were prepared according to standard procedures. Briefly, cells were lysed in a buffer containing 50 mM N-2-hydroxyethylpiperazine-N′-2-ethanesulfonic acid (HEPES; pH 7.5), 1% (v/v) Triton X-100, 150 mM NaCl, 5 mM EGTA, 50 mM NaF, 20 mM sodium pyrophosphate, 1 mM sodium vanadate, 2 mM phenylmethanesulfonyl fluoride (PMSF), and 1 μg/mL aprotinin. Lysates were clarified by centrifugation at 10000g for 15 min. […] Immune complexes were detected with the enhanced chemiluminescence kit (Amersham Pharmacia Biotech, Little Chalfont, U.K.). Anti-phospho-SHC (#Y317), which recognizes SHC protein when phosphorylated on Y317, was from Upstate Biotechnology Inc. (Lake Placid, NY). Anti-SHC (H-108) was from Santa Cruz Biotechnology (Santa Cruz, CA). Anti-MAPK (9101) and anti-phospho-MAPK (9102), specific for p42/44MAPK (ERK1/2) phosphorylated on Thr202/Tyr204, antibodies were from Cell Signaling Technologies (Danvers, MA). Anti-phospho-VEGFR2/KDR (2478), specific for VEGFR2/KDR phosphorylated on Tyr1175, and anti-VEGFR2/KDR (2479) were from Cell Signaling Technologies. Anti-phospho-p70S6K (9234), specific for p70S6K phosphorylated on Thr389, and anti-p70S6K (2708) were from Cell Signaling Technologies. […]

human RET-negative cells = assay: Cell growth curves, human RET-negative cells taken together; conditions: read-out: IC50 dose, all human RET-negative cells
Procedure: The IC50 dose for all human RET-negative cells was >100.0 nM, confirming compound selectivity (Figure S8 and Table S4).
Nthy-ory-3-1 (10000 per well), TPC-1 (10000 per well), MZ-CRC-1 (100000 per well), TT (200000 per well), Lc-2/ad (100000 per well), BCPAP (10000 per well), 8505-C (10000 per well), PC-9 (10000 per well), A549 (10000 per well), CALU-1 (10000 per well), NIH3T3 RET/C634Y (10000 per well), and NIH3T3 HRAS/G12V (10000 per well) were seeded in six-well tissue culture plates. Cells were kept in 2% (TPC-1), 5% (Nthy-ori-3-1), or 10% (BCPAP, 8505-C, CALU-1, A549, PC-9, TT, MZ-CRC-1, and Lc-2/ad) fetal calf serum or in 2% (NIH3T3 RET/C634Y and HRAS/G12V) calf serum. Ba/F3 cells (200000 per well in 2 mL) were seeded in six-well tissue culture plates and kept in 10% fetal calf serum. The day after plating, different concentrations of the drug or vehicle were added to the medium and changed every 2–3 days. Cells were counted every day (Ba/F3), every 2 days (fibroblasts), or every 2–3 days (human cell lines). To compare cell growth, we performed an unpaired Student’s t test using the Instat software program (Graphpad Software Inc.). […] IC50 doses were calculated through a curve fitting analysis from last day of growth curves using the PRISM software program (Graphpad Software Inc.).

[1] = tested on: RET (either transfected or endogenously expressing) mutant cells; assay: Growth inhibition, all RET mutant cells (summary); conditions: range over transfected and endogenously expressing cells; read-out: IC50, growth inhibitory effect on RET mutant cells
Procedure: Finally, NPA101.3 featured efficacy already at 1 mg/kg/day in RET-driven tumors in nude mice. […] Therefore, though in a therapeutic setting toxicity may be increased by hitting multiple targets, it is feasible that the activity of the NPA101.3 against RET-driven tumors may take advantage of a synergistic combination of cell autonomous (on tumor cell growth mediated by RET inhibition) and non-cell autonomous (on blood vessel formation mediated by VEGFR2 inhibition) effects, potentiating its effect and reducing the chances of resistance development. Several TKIs with anti-RET activity are available, and some are already registered for the treatment of different types of thyroid cancers. […]
Nthy-ory-3-1 (10000 per well), TPC-1 (10000 per well), MZ-CRC-1 (100000 per well), TT (200000 per well), Lc-2/ad (100000 per well), BCPAP (10000 per well), 8505-C (10000 per well), PC-9 (10000 per well), A549 (10000 per well), CALU-1 (10000 per well), NIH3T3 RET/C634Y (10000 per well), and NIH3T3 HRAS/G12V (10000 per well) were seeded in six-well tissue culture plates. […] Cells were counted every day (Ba/F3), every 2 days (fibroblasts), or every 2–3 days (human cell lines). […] IC50 doses were calculated through a curve fitting analysis from last day of growth curves using the PRISM software program (Graphpad Software Inc.).

T1 sequence (P35968 20-1356): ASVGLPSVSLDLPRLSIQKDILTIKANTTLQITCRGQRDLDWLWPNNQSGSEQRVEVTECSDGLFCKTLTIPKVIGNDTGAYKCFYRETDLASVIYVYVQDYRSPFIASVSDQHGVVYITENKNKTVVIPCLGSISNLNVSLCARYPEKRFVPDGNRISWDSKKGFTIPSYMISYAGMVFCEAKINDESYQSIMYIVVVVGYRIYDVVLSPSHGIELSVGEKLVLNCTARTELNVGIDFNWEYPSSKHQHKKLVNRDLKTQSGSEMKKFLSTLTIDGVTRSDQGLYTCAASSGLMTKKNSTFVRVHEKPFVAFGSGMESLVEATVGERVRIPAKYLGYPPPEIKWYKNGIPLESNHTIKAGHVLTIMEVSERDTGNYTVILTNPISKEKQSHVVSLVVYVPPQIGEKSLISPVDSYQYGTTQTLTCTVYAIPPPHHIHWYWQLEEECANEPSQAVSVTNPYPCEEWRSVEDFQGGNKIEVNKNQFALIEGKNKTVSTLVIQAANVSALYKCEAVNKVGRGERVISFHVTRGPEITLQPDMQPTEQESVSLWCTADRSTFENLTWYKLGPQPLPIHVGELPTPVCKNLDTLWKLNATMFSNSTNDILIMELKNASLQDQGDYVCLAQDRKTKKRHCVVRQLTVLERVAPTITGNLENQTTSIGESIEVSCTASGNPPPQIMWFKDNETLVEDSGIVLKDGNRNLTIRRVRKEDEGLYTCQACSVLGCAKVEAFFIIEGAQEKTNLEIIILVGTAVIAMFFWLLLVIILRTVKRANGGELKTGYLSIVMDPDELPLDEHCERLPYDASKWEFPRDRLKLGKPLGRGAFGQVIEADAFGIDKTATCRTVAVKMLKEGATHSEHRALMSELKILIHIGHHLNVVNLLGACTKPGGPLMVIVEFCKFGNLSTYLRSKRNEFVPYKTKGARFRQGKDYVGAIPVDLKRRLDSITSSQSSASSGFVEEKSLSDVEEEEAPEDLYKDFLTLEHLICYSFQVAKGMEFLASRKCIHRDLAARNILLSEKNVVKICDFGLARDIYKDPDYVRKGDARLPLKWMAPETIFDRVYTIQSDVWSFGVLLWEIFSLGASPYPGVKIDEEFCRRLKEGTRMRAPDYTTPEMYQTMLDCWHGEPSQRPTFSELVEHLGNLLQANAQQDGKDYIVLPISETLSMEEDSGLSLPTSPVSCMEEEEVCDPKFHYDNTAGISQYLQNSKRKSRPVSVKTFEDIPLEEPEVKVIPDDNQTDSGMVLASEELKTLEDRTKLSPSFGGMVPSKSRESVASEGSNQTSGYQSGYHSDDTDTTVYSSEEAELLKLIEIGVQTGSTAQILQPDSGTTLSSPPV

CC(C)(C)c1cc(NC(=O)Cc2ccc(-n3cnc4cc(-c5ccc(S(C)(=O)=O)cc5)ccc43)cc2)no1 [NPA101.3]
ligand-induced VEGFR2 autophosphorylation (human VEGFR2; 1.0 nM): reduced | inhibition of ligand-induced VEGFR2 autophosphorylation (human VEGFR2; 10.0 nM): virtually total | effect on phosphorylation/signalling (NIH3T3 HRAS/G12V cells): virtually no effect | IC50 (human RET-negative cells): > 100 nM | IC50 [1]: 0.67 to 4.17 nM
